# According to patent US11267823B2, “Substituted 1,2,3,3a,4,5,7,9,13,13a-decahydropyrido[1′,2′:4,5]pyrazino[1,2-a]pyrrolo[1,2-c]pyrimidines having HIV integrase inhibitory activity” (Shionogi & Co., Ltd., priority 2005, dated 2022):
# Where a name gives a salt, the structure may show the parent alone.
# Test system: VSV-g pseudotyped HIV vector that expresses luciferase (PHIV)
# Assay: microbe, parasite or virus in culture
# Type: cell-based
# Conditions: Human immunodeficiency virus 1, HEK-293T, 48 h, read-out: PHIV IC50
row,Structure (SMILES),IC50 [nM]
1,"C[C@H]1CCN(Cc2nccs2)[C@@H]2Cn3cc(C(=O)NCc4ccc(F)cc4F)c(=O)c(O)c3C(=O)N12 [Example Z-34, (4S,12aS)—N-[(2,4-Difluorophenyl)methyl]-7-hydroxy-4-methyl-6,8-dioxo-1-(1,3-thiazol-2-ylmethyl)-1,2,3,4,6,8,12,12a-octahydropyrido[1′,2′:4,5]pyrazino[1,2-a]pyrimidine-9-carboxamide]",< 10
2,"CC(C)[C@@H]1CO[C@H]2Cn3cc(C(=O)NCc4ccc(F)cc4F)c(=O)c(O)c3C(=O)N21 [Example Z-25, (3R,11aS)—N-[(2,4-Difluorophenyl)methyl]-6-hydroxy-3-(1-methylethyl)-5,7-dioxo-2,3,5,7,11,11a-hexahydro[1,3]oxazolo[3,2-a]pyrido[1,2-d]pyrazine-8-carboxamide]",< 10
3,"C[C@H]1CCN(Cc2ccco2)[C@@H]2Cn3cc(C(=O)NCc4ccc(F)cc4F)c(=O)c(O)c3C(=O)N12 [Example Z-33, (4S,12aS)—N-[(2,4-Difluorophenyl)methyl]-1-(1-furanylmethyl)-7-hydroxy-4-methyl-6,8-dioxo-1,2,3,4,6,8,12,12a-octahydropyrido[1′,2′:4,5]pyrazino[1,2-a]pyrimidine-9-carboxamide]",< 10
4,"O=C(NCc1ccc(F)cc1F)c1cn2c(c(O)c1=O)C(=O)N1[C@H](C2)N[C@H]2CCCC[C@@H]21 [Example Z-39, (6aR,7aS,11aS)—N-[(2,4-Difluorophenyl)methyl]-1-hydroxy-2,13-dioxo-2,6a,7,7a,8,9,10,11,11a,13-decahydro-6H-pyrido[1′,2′:4,5]pyrazino[1,2-a]benzimidazole-3-carboxamide]",< 10
5,"O=C(NCc1ccc(F)cc1F)c1cn2c(c(O)c1=O)C(=O)N1CC3CCCCN3[C@H]1C2 (stereo partly drawn) [Example Z-18, (3aR,14aR)—N-[(2,4-Difluorophenyl)methyl]-11-hydroxy-10,12-dioxo-1,2,3,4,5a,6,10,12,14,14a-decahydropyrido[1,2-d]pyrido[1′,2′:3,4]imidazo[1,2-d]pyrazine-9-carboxamide]",< 10
6,"O=C(NCc1ccc(F)cc1F)c1cn2c(c(O)c1=O)C(=O)N1C(C2)O[C@@H]2Cc3ccccc3[C@@H]21 (stereo partly drawn) [Example Z-22, (5aR,14aS)—N-[(2,4-Difluorophenyl)methyl]-12-hydroxy-11,13-dioxo-5a,6a,7,11,13,14a-hexahydro-5H-indeno[1′,2′:4,5][1,3]oxazolo[3,2-a]pyrido[1,2-d]pyrazine-10-carboxamide]",< 10
7,"O=C(NCc1ccc(F)cc1F)c1cn2c(c(O)c1=O)C(=O)N1[C@@H](Cc3ccccc3)CO[C@@H]1C2 [Example Z-6, (3S,11aR)—N-[(2,4-Difluorophenyl)methyl]-6-hydroxy-5,7-dioxo-3-(phenylmethyl)-2,3,5,7,11,11a-hexahydro[1,3]oxazolo[3,2-a]pyrido[1,2-d]pyrazine-8-carboxamide]",< 10
8,"O=C(NCc1ccc(F)cc1F)c1cn2c(c(O)c1=O)C(=O)N1C[C@H]3CCCN3[C@@H]1C2 [Example Z-4, (4aS,13aR)—N-[(2,4-Difluorophenyl)methyl]-10-hydroxy-9,11-dioxo-2,3,4a,5,9,11,13,13a-octahydro-1H-pyrido[1,2-a]pyrrolo[1′,2′:3,4]imidazo[1,2-d]pyrazine-8-carboxamide sodium salt]",< 10
9,"C[C@@H]1CO[C@H]2Cn3cc(C(=O)NCc4ccc(F)cc4F)c(=O)c(O)c3C(=O)N12 [Example Z-1, (3R,11aS)—N-[(2,4-Difluorophenyl)methyl]-6-hydroxy-3-methyl-5,7-dioxo-2,3,5,7,11,11a-hexahydro[1,3]oxazolo[3,2-a]pyrido[1,2-d]pyrazine-8-carboxamide sodium salt]",< 10
10,"C[C@H]1CCN(C2CCSCC2)[C@@H]2Cn3cc(C(=O)NCc4ccc(F)cc4F)c(=O)c(O)c3C(=O)N12 [Example Z-60, (4S,12aS)—N-[(2,4-Difluorophenyl)methyl]-7-hydroxy-4-methyl-6,8-dioxo-1-(tetrahydro-2H-thiopyran-4-yl)-1,2,3,4,6,8,12,12a-octahydropyrido[1′,2′:4,5]pyrazino[1,2-a]pyrimidine-9-carboxamide]",< 10
11,"O=C(NCc1ccc(F)cc1F)c1cn2c(c(O)c1=O)C(=O)N1[C@H](c3ccccc3)[C@H](c3ccccc3)O[C@@H]1C2 [Example Z-24, (2S,3R,11aR)—N-[(2,4-Difluorophenyl)methyl]-6-hydroxy-5,7-dioxo-2,3-diphenyl-2,3,5,7,11,11a-hexahydro[1,3]oxazolo[3,2-a]pyrido[1,2-d]pyrazine-8-carboxamide]",< 10
12,"CC(C)C[C@@H]1CO[C@H]2Cn3cc(C(=O)NCc4ccc(F)cc4F)c(=O)c(O)c3C(=O)N12 [Example Z-17, (3R,11aS)—N-[(2,4-Difluorophenyl)methyl]-6-hydroxy-3-(2-methylpropyl)-5,7-dioxo-2,3,5,7,11,11a-hexahydro[1,3]oxazolo[3,2-a]pyrido[1,2-d]pyrazine-8-carboxamide]",< 10
13,"O=C(NCc1ccc(F)cc1)c1cn2c(c(O)c1=O)C(=O)N1[C@@H](C2)OC[C@@H]2CCCC[C@@H]21 (racemic) [Example Z-36, racemic-(4R,6aR,14aS)—N-[(4-Fluorophenyl)methyl]-12-hydroxy-11,13-d oxo-1,3,4,4a,5,6a,7,11,13,14a-decahydro-2H-pyrido[1′,2′:4,5]pyrazino[1,2-a][3,1]benzoxazine-10-carboxamide]",< 10
14,"C[C@@H]1[C@H](c2ccccc2)OC2Cn3cc(C(=O)NCc4ccc(F)cc4F)c(=O)c(O)c3C(=O)N21 (stereo partly drawn) [Example Z-15, (2S,3R)—N-[(2,4-Difluorophenyl)methyl]-6-hydroxy-3-methyl-5,7-dioxo-2-phenyl-2,3,5,7,11,11a-hexahydro[1,3]oxazolo[3,2-a]pyrido[1,2-d]pyrazine-8-carboxamide]",< 10
15,"CSCC[C@H]1CO[C@@H]2Cn3cc(C(=O)NCc4ccc(F)cc4F)c(=O)c(O)c3C(=O)N12 [Example Z-26, (2S,11aR)—N-[(2,4-Difluorophenyl)methyl]-6-hydroxy-3-[2-(methylthio)ethyl]-5,7-dioxo-2,3,5,7,11,11a-hexahydro[1,3]oxazolo[3,2-a]pyrido[1,2-d]pyrazine-8-carboxamide]",< 10
16,"C[C@H]1CCN(CC2CC2)[C@@H]2Cn3cc(C(=O)NCc4ccc(F)cc4F)c(=O)c(O)c3C(=O)N12 [Example Z-32, (4S,12aS)-1-(Cyclopropylmethyl)-N-[(2,4-difluorophenyl)methyl]-7-hydroxy-4-methyl-7-hydroxy-4-methyl-6,8-dioxo-1,2,3,4,6,8,12,12a-octahydropyrido[1′,2′:4,5]pyrazino[1,2-a]pyrimidine-9-carboxamide]",< 10
17,"O=C(NCc1ccc(F)cc1F)c1cn2c(c(O)c1=O)C(=O)N1[C@H](C2)O[C@@H](c2ccccc2)[C@H]1c1ccccc1 [Example Z-23, (2S,3R,11aS)—N-[(2,4-Difluorophenyl)methyl]-6-hydroxy-5,7-dioxo-2,3-diphenyl-2,3,5,7,11,11a-hexahydro[1,3]oxazolo[3,2-a]pyrido[1,2-d]pyrazine-8-carboxamide]",< 10
18,"O=C(NCc1ccc(F)cc1F)c1cn2c(c(O)c1=O)C(=O)N1[C@@H](Cc3c[nH]c4ccccc34)CO[C@@H]1C2 [Example Z-28, (3S,11aR)—N-[(2,4-Difluorophenyl)methyl]-6-hydroxy-3-(1H-indo-3-ylmethyl)-5,7-dioxo-2,3,5,7,11,11a-hexahydro[1,3]oxazolo[3,2-a]pyrido[1,2-d]pyrazine-8-carboxamide]",< 10
19,"O=C(NCc1ccc(F)cc1F)c1cn2c(c(O)c1=O)C(=O)N1[C@H]3CCCC[C@H]3CN(CCN3CCOCC3)[C@@H]1C2 (racemic) [Example Z-51, racemic-(4aS,6aS,14aS)—N-[(2,4-Difluorophenyl)methyl]-12-hydroxy-6-[2-(4-morpholinyl)ethyl]-11,13-dioxo-1,2,3,4,4a,5,6,6a,7,11,13,14a-dodecahydropyrido-[1′,2′:4,5]pyrazino[1,2-a]quinazoline-10-carboxamide]",< 10
20,"CC(C)N1CC[C@H](C)N2C(=O)c3c(O)c(=O)c(C(=O)NCc4ccc(F)cc4F)cn3C[C@@H]12 [Example Z-44, (4S,12aS)—N-[(2,4-Difluorophenyl)methyl]-7-hydroxy-4-methyl-1-(1-methylethyl)-6,8-dioxo-1,2,3,4,6,8,12,12a-octahydropyrido[1′,2′:4,5]pyrazino[1,2-a]pyrimidine-9-carboxamide]",< 10
21,"O=C(NCc1ccc(F)cc1F)c1cn2c(c(O)c1=O)C(=O)N1[C@@H](c3ccccc3)CO[C@@H]1C2 [Example Z-13, (3S,11aR)—N-[(2,4-Difluorophenyl)methyl]-6-hydroxy-5,7-dioxo-3-phenyl-2,3,5,7,11,11a-hexahydro[1,3]oxazolo[3,2-a]pyrido[1,2-d]pyrazine-8-carboxamide]",10 to 100
22,"C[C@H]1CCN(C2CCC2)[C@@H]2Cn3cc(C(=O)NCc4ccc(F)cc4F)c(=O)c(O)c3C(=O)N12 [Example Z-59, (4S,12aS)-1-Cyclobutyl-N-[(2,4-difluorophenyl)methyl]-7-hydroxy-4-methyl-6,8-dioxo-1,2,3,4,6,8,12,12a-octahydropyrido[1′,2′:4,5]pyrazino[1,2-a]pyrimidine-9-carboxamide]",< 10
23,"COCCN1CC[C@H](C)N2C(=O)c3c(O)c(=O)c(C(=O)NCc4ccc(F)cc4F)cn3C[C@@H]12 [Example Z-48, (4S,12aS)—N-[(2,4-Difluorophenyl)methyl]-7-hydroxy-4-methyl-1-[2-(methyloxy)ethyl]-6,8-dioxo-1,2,3,4,6,8,12,12a-octahydropyrido[1′,2′:4,5]pyrazino[1,2-a]pyrimidine-9-carboxamide]",< 10
24,"CC(C)CN1CC[C@@H](C)N2C(=O)c3c(O)c(=O)c(C(=O)NCc4ccc(F)cc4)cn3C[C@H]12 [Example Z-29, (4R,12aR)—N-[(4-fluorophenyl)methyl]-7-hydroxy-4-methyl-1-(2-methylpropyl)-6,8-dioxo-6-[(phenylmethyl)oxy]-1,2,3,4,6,8,12,12a-octahydropyrido[1′,2′:4,5]pyrazino[1,2-a]pyrimidine-9-carboxamide]",< 10
